Where only a bound is given, the exact number is not on record here.

For orientation: half-life means the time in which the quantity being followed falls by half. A high value points to slow loss. For orientation: microsomal CLint means a measure of how fast metabolising enzymes remove a compound, apart from limits set by blood flow. Low readings indicate greater metabolic stability, high ones faster metabolism. As usually defined, the CLint scaled is the capacity of the preparation to metabolise the compound, expressed as a volume cleared per time.

The first series concerns the target T1, Recombinant human LOXL3 (lysyl oxidase like 3) (Homo sapiens, UniProt P58215).
T1 construct: purchased R&D systems
T1 sequence (P58215 26-753): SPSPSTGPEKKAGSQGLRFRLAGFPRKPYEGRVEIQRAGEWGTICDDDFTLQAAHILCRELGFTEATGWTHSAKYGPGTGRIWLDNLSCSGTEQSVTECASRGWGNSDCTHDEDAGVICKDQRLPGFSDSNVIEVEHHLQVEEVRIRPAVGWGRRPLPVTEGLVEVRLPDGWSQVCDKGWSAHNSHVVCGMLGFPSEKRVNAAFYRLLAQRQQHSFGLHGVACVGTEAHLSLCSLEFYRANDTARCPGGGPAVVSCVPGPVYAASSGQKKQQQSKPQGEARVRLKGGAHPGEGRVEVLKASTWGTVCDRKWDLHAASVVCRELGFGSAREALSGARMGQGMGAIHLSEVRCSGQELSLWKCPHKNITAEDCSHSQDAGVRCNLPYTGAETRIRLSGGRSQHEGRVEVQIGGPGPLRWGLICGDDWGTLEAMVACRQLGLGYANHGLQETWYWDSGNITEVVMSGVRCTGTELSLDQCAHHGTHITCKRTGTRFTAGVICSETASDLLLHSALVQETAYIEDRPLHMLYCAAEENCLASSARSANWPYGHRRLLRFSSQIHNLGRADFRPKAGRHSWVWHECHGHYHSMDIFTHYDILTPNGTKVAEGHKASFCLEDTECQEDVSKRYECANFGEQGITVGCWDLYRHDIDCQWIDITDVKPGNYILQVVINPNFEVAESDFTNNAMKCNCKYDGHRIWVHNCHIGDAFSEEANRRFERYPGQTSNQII
Put plainly: LOXL3 inhibition assay (fluorometric, cadaverine/Amplex Red/HRP). Format: biochemical. As to conditions: IC50 class; recombinant human LOXL3, cadaverine substrate; read-out: Activity Range LOXL3. On the procedure: The ability of compounds to inhibit one or more of the lysyl oxidases LOXL2 and/or LOXL3 was determined using a fluorometric assay. This assay measures the activity of lysyl oxidases by coupling the reaction with horseradish peroxidase-catalyzed […]. The activity assay protocol uses cadaverine as substrate that releases hydrogen peroxide upon transformation by the specific LOX family enzyme present in the sample. Hydrogen peroxide is in turn detected using a red fluorescence substrate for HRP-coupled reactions (Amplex Red Enzyme Assays, Thermo Scientific Fisher). This leads to increase in fluorescence that can be easily detected at Ex/Em=540/590 nm in a fluorescence microplate reader.
Enzymes: Recombinant human LOXL2 (lysyl oxidase like 2) and recombinant human LOXL3 (lysyl oxidase like 3) were purchased from R&D systems and assays were performed in 1.2 M urea, 50 mM sodium borate buffer pH 8.0, and 10 mM CaCl.
Reaction: Final concentration in the LOXL2 and LOXL3 assays were as following and performed in a total volume of […]:
Experimental procedure: 5 μl of freshly prepared reaction buffer were delivered to reaction wells. Compounds were resuspended in 100% DMSO at 10 mM and delivered into buffer using acoustic technology (Echo550; nanoliter range). A 3× solution of LOXL2 or LOXL3 in reaction buffer was prepared (“enzyme solution”) and 5 μL of enzyme solution was added into the reaction wells. Buffer only was added to column 1 for no protein control. Reactions were incubated for 30 minutes at 37° C. A 3×mixture of cadaverine, Amplex Red, and HRP (“Substrate/Detection Mix) was prepared and subsequently 5 μL of the mixture added to each reaction well. Progress of reactions was monitored for 60 minutes at 37° C. using Clariostar plate reader (ex 530-12, ems 600-40). For all activity assays, pan-LOX inhibitor CCT365623 (Tang et al, 2017) and LOXL2/LOXL3 inhibitor PAT-1251 (PharmaKea) were included as standards.
Data analysis: Slope of the linear portion of the progress curve was calculated using Clariostar software. Typical analysis interval was between 8-30 min, but varied between experiments. The background subtracted signals (No protein wells are considered as background) were converted to % activity relative to DMSO controls. Data was analyzed using GraphPad Prism 4 with “sigmoidal dose-response (variable slope)”; 4 parameters with Hill Slope. Constraints: Bottom=Constant equal to 0. Top=Must be less than 120.
Regarding `CS(=O)(=O)N1C[C@H](Oc2cccc(CN)c2)C[C@H](c2ccccc2F)C1` (racemic) [Example 70, cis-(3-((5-(2-Fluorophenyl)-1-(methylsulfonyl)piperidin-3-yl)oxy)phenyl)methanamine 2,2,2-trifluoroacetate], the IC50 lay in the range of 1000 to 30000 nM.

`CS(=O)(=O)[C@@H]1C[C@@H](S(=O)(=O)c2cccc(CN)c2)CN(c2ccccc2)C1` (racemic) [Example 79, trans-(3-((-5-(Methylsulfonyl)-1-phenylpiperidin-3-yl)sulfonyl)phenyl)methanamine]: the IC50 is 1000 to 30000 nM. Still for that read-out and setting: the result for `NCc1cccc(S(=O)(=O)N2C[C@H](C(=O)N3CCS(=O)(=O)CC3)C[C@@H](c3ccccc3)C2)c1` (racemic) [Example 85, trans-(1-((3-(Aminomethyl)phenyl)sulfonyl)-5-phenylpiperidin-3-yl)(1,1-dioxidothiomorpholino)methanone 2,2,2-trifluoroacetate] reads 1000 to 30000 nM; that for `CS(=O)(=O)[C@H]1C[C@@H](S(=O)(=O)c2cccc(CN)c2)CN(c2ccccc2F)C1` (racemic) [Example 92, cis-(3-((-1-(2-Fluorophenyl)-5-(methylsulfonyl)piperidin-3-yl)sulfonyl)phenyl)methanamine 2,2,2-trifluoroacetate], 1000 to 30000 nM. For the compound `NCc1cccc(S(=O)(=O)N2C[C@H](C(=O)N3CCS(=O)(=O)CC3)C[C@@H](c3ccccc3)C2)n1` (racemic) [Example 115T, trans-(1-((6-(Aminomethyl)pyridin-2-yl)sulfonyl)-5-phenylpiperidin-3-yl)(1,1-dioxidothiomorpholino)methanone 2,2,2-trifluoroacetate], the IC50 was more than 30000 nM. On to `NCc1ccnc(S(=O)(=O)N2C[C@@H](C(=O)N3CCS(=O)(=O)CC3)C[C@@H](c3ccccc3)C2)c1` (racemic) [Example 134, cis-(1-((4-(Aminomethyl)pyridin-2-yl)sulfonyl)-5-phenylpiperidin-3-yl)(1,1-dioxidothiomorpholino)methanone 2,2,2-trifluoroacetate], for which the IC50 was not above 500 nM. Consider `NCc1cccc(S(=O)(=O)N2C[C@@H](C(=O)N3CCOCC3)C[C@@H](C3CCCCC3)C2)c1` (racemic) [Example 139, cis-(1-((3-(Aminomethyl)phenyl)sulfonyl)-5-cyclohexylpiperidin-3-yl)(morpholino)methanone], for which the IC50 is 1000 to 30000 nM. As for `NCc1cccc(S(=O)(=O)N2C[C@@H](C(=O)N3CCS(=O)(=O)CC3)C[C@@H](C3CCCCC3)C2)c1` (racemic) [Example 140, cis-(1-((3-(Aminomethyl)phenyl)sulfonyl)-5-cyclohexylpiperidin-3-yl)(1,1-dioxidothiomorpholino)methanone], the IC50 fell in the range of 1000 to 30000 nM.

Take `CN(C)C(=O)[C@H]1C[C@@H](C2CCCCC2)CN(S(=O)(=O)c2cc(CN)ccn2)C1` (racemic) [Example 144, cis-1-((4-(Aminomethyl)pyridin-2-yl)sulfonyl)-5-cyclohexyl-N,N-dimethylpiperidine-3-carboxamide 2,2,2-trifluoroacetate]: the IC50 was not above 500 nM. As for `NCc1ccnc(S(=O)(=O)N2C[C@@H](C(=O)N3CCOCC3)C[C@@H](C3CCCCC3)C2)c1` (racemic) [Example 145, cis-(1-((4-(Aminomethyl)pyridin-2-yl)sulfonyl)-5-cyclohexylpiperidin-3-yl)(morpholino)methanone 2,2,2-trifluoroacetate], the IC50 fell in the range of 500 to 1000 nM. On to `NCc1ccnc(S(=O)(=O)N2C[C@@H](C(=O)N3CCS(=O)(=O)CC3)C[C@@H](C3CCCCC3)C2)c1.O=C(O)C(F)(F)F` (racemic) [Example 146, cis-(1-((4-(Aminomethyl)pyridin-2-yl)sulfonyl)-5-cyclohexylpiperidin-3-yl)(1,1-dioxidothiomorpholino)methanone 2,2,2-trifluoroacetate], for which the IC50 was not above 500 nM. Take `NCc1ccnc(S(=O)(=O)N2C[C@@H](C(=O)N3CCOCC3)C[C@@H](c3ccccc3)C2)c1` (relative stereo) [Example 133, cis-(1-((4-(Aminomethyl)pyridin-2-yl)sulfonyl)-5-phenylpiperidin-3-yl)(morpholino)methanone 2,2,2-trifluoroacetate]: the IC50 was not above 500 nM. As to `CN(C)C(=O)[C@H]1C[C@@H](C2CCCCC2)CN(S(=O)(=O)c2cccc(CN)c2)C1` (relative stereo) [Example 138, cis-1-((3-(Aminomethyl)phenyl)sulfonyl)-5-cyclohexyl-N,N-dimethylpiperidine-3-carboxamide 2,2,2-trifluoroacetate], the IC50 was in the range of 1000 to 30000 nM.

Regarding `NCc1ccnc(S(=O)(=O)N2C[C@@H](C(=O)N3CCOCC3)C[C@@H](c3ccccc3)C2)c1` [Example 133A, ((3S,5S)-1-((4-(aminomethyl)pyridin-2-yl)sulfonyl)-5-phenylpiperidin-3-yl)(morpholino)methanone 2,2,2-trifluoroacetate], the IC50 fell in the range of 500 to 1000 nM.

Take `NCc1ccnc(S(=O)(=O)N2C[C@H](C(=O)N3CCOCC3)C[C@H](c3ccccc3)C2)c1` [Example 133B, ((3R,5R)-1-((4-(aminomethyl)pyridin-2-yl)sulfonyl)-5-phenylpiperidin-3-yl)(morpholino)methanone 2,2,2-trifluoroacetate]: the IC50 was not above 500 nM.

System in a further series: not listed separately
Briefly: Microsome stability study. The class given is in vitro ADME, mouse. As to conditions: CD-1, pH 7.4; male mouse liver microsomes 0.5 mg/mL, 2 μM, NADPH. On the procedure:
Pooled CD-1 mouse liver microsomes at 0.5 mg/mL were pre-incubated in phosphate buffer (100 mM, pH 7.4) containing 1 mM NADPH and 3 mM MgCl2 in a 96-well plate for 5 minutes at 37° C. Ultra-pure water was added instead of NADPH in the negative control group to exclude the misleading factor that resulted from instability of chemical itself. The reaction was initiated by adding test compound at the final concentration of 2 μM and incubated at 37° C. Aliquots were taken from the incubation at 0, 15, 30, 45 and 60 minutes followed by the addition of 4 volume of cold acetonitrile containing internal standards. Samples were centrifuged and supernatant was used for LC-MS/MS analysis.
For the compound `NCc1ccnc(S(=O)(=O)N2C[C@@H](C(=O)N3CCS(=O)(=O)CC3)C[C@@H](C3CCCCC3)C2)c1.O=C(O)C(F)(F)F` (racemic) [Example 146, cis-(1-((4-(Aminomethyl)pyridin-2-yl)sulfonyl)-5-cyclohexylpiperidin-3-yl)(1,1-dioxidothiomorpholino)methanone 2,2,2-trifluoroacetate], the half-life at 2 μM is 32 min and the microsomal CLint at 2 μM was found to be 43.3 µL/min/mg.

Still in this series, the particulars now being: male, CD-1, pH 7.4; mouse liver microsomes; read-out: Scaled-up CLint.
`NCc1ccnc(S(=O)(=O)N2C[C@@H](C(=O)N3CCS(=O)(=O)CC3)C[C@@H](C3CCCCC3)C2)c1.O=C(O)C(F)(F)F` (racemic) [Example 146, cis-(1-((4-(Aminomethyl)pyridin-2-yl)sulfonyl)-5-cyclohexylpiperidin-3-yl)(1,1-dioxidothiomorpholino)methanone 2,2,2-trifluoroacetate]: the CLint scaled at 2 μM is 190 mL/min/kg.

Still in this series, the particulars now being: mouse liver microsomes.
For `NCc1ccnc(S(=O)(=O)N2C[C@@H](C(=O)N3CCS(=O)(=O)CC3)C[C@@H](C3CCCCC3)C2)c1.O=C(O)C(F)(F)F` (racemic) [Example 146, cis-(1-((4-(Aminomethyl)pyridin-2-yl)sulfonyl)-5-cyclohexylpiperidin-3-yl)(1,1-dioxidothiomorpholino)methanone 2,2,2-trifluoroacetate], the “Predicted hepatic CL” value is 61.03 mL/min/kg.

(Values after patent US20230310445A1, “LOX ENZYME INHIBITING METHODS AND COMPOSITIONS” (ANOVIA BIOSCIENCES, INC., priority 2020, published 2023).)
